Reference: the supplement of paper PMC10307832

How the values were obtained:
Experiment in all cases: relative viability (nuclei count vs DMSO), 5 days (fraction); higher = more cells survive
Bortezomib + Foretinib = compound: CC(C)C[C@H](NC(=O)[C@H](Cc1ccccc1)NC(=O)c1cnccn1)B(O)O [Bortezomib] + COc1cc2c(Oc3ccc(NC(=O)C4(C(=O)Nc5ccc(F)cc5)CC4)cc3F)ccnc2cc1OCCCN1CCOCC1 [Foretinib] (partner 0.25 µM)
Procedure, shortened: (§1)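 Dosing by pin tool came one day after lung cancer cell lines were seeded in 1536-well plates, using either one drug or a fixed anchor-drug dose plus five library-drug doses (not always all listed) in √10 steps. After 5 days, nuclei were counted on 4× images. Relative viability is treated-well nuclei count divided by vehicle-well nuclei count, and values are medians of duplicate plates.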

Bortezomib + Crizotinib = compound: CC(C)C[C@H](NC(=O)[C@H](Cc1ccccc1)NC(=O)c1cnccn1)B(O)O [Bortezomib] + C[C@@H](Oc1cc(-c2cnn(C3CCNCC3)c2)cnc1N)c1c(Cl)ccc(F)c1Cl [Crizotinib] (partner 1 µM)
Procedure, shortened: as §1

Obatoclax + Trametinib = compound: COC1=CC(c2cc3ccccc3[nH]2)=N/C1=C\c1[nH]c(C)cc1C [Obatoclax] + CC(=O)Nc1cccc(-n2c(=O)n(C3CC3)c(=O)c3c(Nc4ccc(I)cc4F)n(C)c(=O)c(C)c32)c1 [Trametinib] (partner 0.02 µM)
Procedure, shortened: as §1

Obatoclax + AZD7762 = compound: COC1=CC(c2cc3ccccc3[nH]2)=N/C1=C\c1[nH]c(C)cc1C [Obatoclax] + NC(=O)Nc1cc(-c2cccc(F)c2)sc1C(=O)N[C@H]1CCCNC1 [AZD7762] (partner 0.2 µM)
Procedure, shortened: as §1

Cell Line	relative viability (Bortezomib + Foretinib; first compound 0.0002 µM)	relative viability (Bortezomib + Foretinib; first compound 0.000632 µM)	relative viability (Bortezomib + Foretinib; first compound 0.002 µM)	relative viability (Bortezomib + Foretinib; first compound 0.006325 µM)	relative viability (Bortezomib + Foretinib; first compound 0.02 µM)	relative viability (Bortezomib + Crizotinib; first compound 0.0002 µM)	relative viability (Bortezomib + Crizotinib; first compound 0.000632 µM)	relative viability (Bortezomib + Crizotinib; first compound 0.002 µM)	relative viability (Bortezomib + Crizotinib; first compound 0.006325 µM)	relative viability (Bortezomib + Crizotinib; first compound 0.02 µM)	relative viability (Obatoclax + Trametinib; first compound 0.01 µM)	relative viability (Obatoclax + Trametinib; first compound 0.03162 µM)	relative viability (Obatoclax + Trametinib; first compound 0.1 µM)	relative viability (Obatoclax + Trametinib; first compound 0.3162 µM)	relative viability (Obatoclax + Trametinib; first compound 1 µM)	relative viability (Obatoclax + AZD7762; first compound 0.01 µM)	relative viability (Obatoclax + AZD7762; first compound 0.1 µM)	relative viability (Obatoclax + AZD7762; first compound 0.3162 µM)	relative viability (Obatoclax + AZD7762; first compound 1 µM)	relative viability (Obatoclax + AZD7762; first compound 0.03162 µM)
LCLC-97TM1	0.906	0.929	0.721	0.242	0.151	0.4	0.329	0.111	0.114	0.118	0.224	0.177	0.203	0.193	0.194	0.218	0.203	0.229	0.206	
LC-2-ad	0.913	0.899	0.814	0.244	0.203		0.476	0.403	0.291	0.19	0.954	0.859	0.885	0.905	0.969	0.857	0.777	0.836	0.438	0.888
HOP-62	0.972	1.07	0.863	0.134	0.0751		1.01	0.35	0.235	0.048	0.406	0.318	0.389	0.388	0.408	0.402	0.515	0.59	0.508	0.519
NCI-H2347	0.741	1.3	1.09	0.275	0.327	0.657	0.582	0.348	0.291	0.298	0.312	0.305	0.27	0.237	0.277	0.687	0.777	0.695	0.869	0.836
NCI-H2087	0.972	0.975	0.794	0.0688	0.059	0.912	0.911	0.74	0.0857	0.072	0.2	0.204	0.22	0.145	0.122	1.19	1.15	1.21	0.9	1.37
EPLC-272H	0.7	0.506	0.148	0.0867	0.0676			0.972	0.584	0.07	0.306	0.301	0.352	0.252	0.301	0.236	0.155	0.192	0.229	0.145
LXF-289	0.98	0.964	0.991	0.127	0.0671	0.809	0.795	0.896	0.0729	0.0698	0.642	0.663	0.671	0.707	0.671	1.03	1.14	1.1	1.09	1.07
RERF-LC-KJ	0.944	0.886	0.929	0.761	0.221	0.846	0.85	0.84	0.271	0.178	0.888	0.834	0.835	0.869	0.769	1.04	0.732	0.838	0.923	0.914
NCI-H1755	0.939	0.972	0.868	0.494	0.192	0.866	0.828	0.877	0.196	0.156	0.673	0.769	0.77	0.752	0.799	0.387	0.381	0.457	0.423	0.468
PC-14	1.04	1.03	1.02	0.588	0.159	0.935	0.935	0.947	0.359	0.0821	0.719	0.665	0.513	0.104	0.0647	0.304	0.269	0.339	0.112	0.328
NCI-H322M	0.894		0.773	0.654	0.327	0.977		0.99	0.985	0.36	0.547	0.482	0.71	0.535	0.669	0.538	0.549	0.399	0.4	0.556
NCI-H1666	0.868	0.945	0.884	0.289	0.316	0.941	1.11	0.9	0.202	0.228	0.753	0.849	0.949	0.805	0.637	0.959	0.789	0.815	0.581	0.823
A-427	1.02	1.1	0.932	0.483	0.122	0.867	0.859	0.866	0.521	0.0943	0.785	0.689	0.849	0.729	0.621	0.746	0.496	0.467	0.441	0.757
NCI-H358	0.538	0.647	0.642	0.0816	0.0663	0.63	0.56	0.503	0.126	0.113	0.129	0.127	0.165	0.135	0.114	0.519	0.543	0.307	0.224	0.438
